Assay results published in patent publication US20040002457A1, “Inhibition of virus anchorage by RGG domain of a cell surface-expressed protein, polynucleotide coding for said RGG domain, therapeutic uses thereof by inhibition of microorganism or protein ligand binding to the cell-surface-expressed protein” (priority 2002, published 2004).
Like-named read-outs stand apart in the source and are kept apart here. No end group written: not given here.

Experiments:
HIV-1 LAI [1] = details: cited from earlier work
HIV particles = details: CD4+ target cells (refs 1, 4, 13, 26); cited from earlier work
full-length nucleolin = biological target: T1, full-length nucleolin (Homo sapiens, UniProt P19338); test: Biotinylated HB-19A binding to in vitro translated full-length nucleolin (avidin-agarose); details: amino acids 1 to 707, 0.5 or 1 μM biotinylated HB-19A (FIG. 6)
T1 construct: labeled full length nucleolin, N-terminal and the C-terminal parts containing amino acids 1 to 707; vector-encoded His leader of pcDNA4His/Max C (only the vector name is printed); made in house; host or cells: cell-free: TNT coupled rabbit reticulocyte lysate (Promega), 35S-Met/Cys labelled, used crude
Experimental: (§1) In vitro transcription and translation of human nucleolin. The TNT coupled reticulocyte lysate system (Promega) was used to produce the wild-type nucleolin (pcDNA4 Nuc) and the N- and C-terminal parts of nucleolin (pcDNA4 NucN and pcDNA4 NucC containing amino acids 1-308 and 309-707) by in vitro transcription/translation. Reactions were performed by using 2 μg of each plasmid and 20 μCi of […].
(§2) To assay the HB-19A binding capacity of the generated nucleolin and nucleolin truncated constructs, 25 μl of translation products were diluted in 25 μl of modified BI buffer (20 mM Tris-HCl, pH 7.6,100 mM NaCl, 50 mM KCl, 2 mM EDTA, 2% Triton X-100,1000 U/ml aprotinin), centrifuged at 12,000 g for 10 min at 4° C. and diluted in 150 μl of PBS. Binding reactions were performed by incubating 200 μl of each diluted lysates with the biotinylated HB-19A for 1 h at 4° C. Complexes formed between nucleolin deletion constructs and biotinylated HB-19A were isolated by purification of the extracts using avidin-agarose (100 μl) in PBS-EDTA (12). After 2 h of incubation at 4° C., the samples were washed extensively with PBS-EDTA. The purified proteins were eluted by heating in the electrophoresis sample buffer containing SDS and analyzed by SDS-PAGE.

[2] = system: C-terminal part of nucleolin; test: Biotinylated HB-19A binding to in vitro translated C-terminal part of nucleolin; set-up: species or system human; details: amino acids 309-707 (FIG. 6)
Experimental: as §1, §2

HIV-1 LAI [3] = test: HIV-1 LAI infection in HeLa P4 cells (LTR-lacZ, β-galactosidase); format: cell-based; details: HB-19A 1 μM (FIG. 9)
Experimental: Assay of HIV infection in HeLa CD4+cells. HIV-1 LAI infection was monitored indirectly in HeLa-CD4-LTR-/ac Z cells (HeLa P4 cells) containing the bacterial lac Z gene under the control of HIV-1 LTR. HIV-1 entry and replication result in the activation of the HIV-1 LTR leading to the expression of p-galactosidase. At 48 h post-infection, cells were lysed and assayed for β-galactosidase activity using the chlorophenol-red-β-D-galactopyranoside as a substrate. The optical density was measured at 570 nm (1). The HIV-1 Ba-L infection was monitored in HeLa-CD4-LTR-/ac Z cells but expressing also CCR5 (HeLa F4-C5 cells) as above (1).
Assay of peptides for their activity. Each peptide is tested at different concentrations to investigate their capacity to inhibit HIV infection. Each peptide is investigated for its binding capacity to the HB-19, using biotin-coupled HB-19.

CHO K1 cells = test: Biotinylated HB-19A binding to wild type CHO K1 cells; set-up: species or system Chinese hamster; details: wild type CHO K1 cells (FIG. 3B)
Experimental: (§3) Assay of HB-19A binding to cells. Cells were plated at 10^4 cells/well in 96-well-plates for the ^1251-labeled HB-19A binding or at 10^5 cells/well, in 24-well-plates for the biotinylated HB-19A binding. Twenty four hours later, binding experiments were performed after incubation of the cell monolayers in fresh culture medium for 1 h at room temperature (about 21° C.) in order to cool cells. It should be noted that intracellular entry of HB-19A is inhibited more than 90% at room temperature. Cells were incubated (30 min at room temperature) with different concentrations of the ^125I-labeled HB-19A or the biotinylated HB-19A before washing cells in culture medium containing 10% FCS. For total amount of binding (specific and non-specific), cells were washed 7 times with culture medium. For specific binding measurements, cells were first washed 3 times in culture medium supplemented with 150 mM NaCl thus bringing the final concentration of NaCl to 300 mM followed by 4 washings in culture medium. Washed cells were processed to reveal either the ^125I-labeled HB-19A or the biotinylated HB-19A. For the ^1251-labeled HB-19A binding, cell monolayers were extracted in 1% SDS and the radioactivity was measured in an automatic gamma counter (LKB Wallac Clini Gamma 1272). […] Finally, ortho-phenylenediamine solution was added in the dark and the absorbance was measured at 405 nm.

RGG domain of nucleolin = test: Biotinylated HB-19A binding to GST constructs of nucleolin containing the RGG domain; set-up: species or system human; details: constructs containing the RGG domain (FIG. 8, lanes 1234G, R234G, G)
Experimental: Expression and purification of recombinant nucleolin constructs. Escherichia coli (E. coli) BL21 (DE3) cells were transformed with each pGEX-N3 plasmid coding for truncated derivatives of the C-terminal part of human nucleolin. Cells were grown overnight at 37° C. in 100 ml of Terrific Broth containing 100 μg of ampicillin per ml. After 1:50 dilution in 100 ml of fresh medium, cells were grown at 30° C. to a 600 nm optical density of approximately 0.5 (6 h) and induced with 0.5 mM isopropyl-1-thio-D-galactopyranoside (IPTG) for an additional 2 h. Bacteria were pelleted at 4,000 g for 10 min at 4° C., resuspended in 5 ml of PBS containing 0.2 mM phenylmethylsulphonyl flouride (PMSF) and 1 mM DTT, and frozen at −20° C. overnight. […] The presence of proteins in cell extracts was monitored by SDS-Page with Coomassie blue staining, and their respective concentration estimated and adjusted.
To assay HB-19A binding capacity, bacterial extracts were first diluted 5-fold in PBS-EDTA before centrifugation at 12,000 g for 10 min at 4° C. […] The purified proteins were eluted by heating in the electrophoresis sample buffer containing SDS and analyzed by immunoblotting using anti-GST monoclonal antibody B-14 (Santa Cruz Biotechnology, Inc.).

CHO 618 cells = test: Biotinylated HB-19A binding to mutant CHO 618 cells; set-up: species or system Chinese hamster; details: CHO 618 devoid of heparan- and chondroitin-sulfate proteoglycans (FIG. 3B)
Experimental: as §3

HeLa P4 cells = test: HB-19A binding to HeLa P4 cells (125I-labeled HB-19A); set-up: species or system human; details: HeLa P4 cells washed at 300 mM NaCl (FIG. 3A)
Experimental: as §3

HIV = details: 1 μM HB-19A, different types of cells (refs 1, 10); cited from earlier work
[4] = biological target: T2, N-terminal part of nucleolin (Homo sapiens, UniProt P19338); test: Biotinylated HB-19A binding to in vitro translated N-terminal part of nucleolin; details: amino acids 1 to 308, contains the acidic stretches (FIG. 6)
T2 construct: pcDNA4 NucN and pcDNA4 NucC containing amino acids 1-308 and 309-707; vector-encoded His leader of pcDNA4His/Max C (only the vector name is printed); made in house; host or cells: cell-free: TNT coupled rabbit reticulocyte lysate (Promega), 35S-Met/Cys labelled, used crude
Experimental: as §1, §2

Sequence of RGG domain of nucleolin (P19338 648-710 limits assumed): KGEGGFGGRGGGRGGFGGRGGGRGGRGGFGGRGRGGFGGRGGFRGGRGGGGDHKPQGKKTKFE
T2 sequence (P19338 1-308): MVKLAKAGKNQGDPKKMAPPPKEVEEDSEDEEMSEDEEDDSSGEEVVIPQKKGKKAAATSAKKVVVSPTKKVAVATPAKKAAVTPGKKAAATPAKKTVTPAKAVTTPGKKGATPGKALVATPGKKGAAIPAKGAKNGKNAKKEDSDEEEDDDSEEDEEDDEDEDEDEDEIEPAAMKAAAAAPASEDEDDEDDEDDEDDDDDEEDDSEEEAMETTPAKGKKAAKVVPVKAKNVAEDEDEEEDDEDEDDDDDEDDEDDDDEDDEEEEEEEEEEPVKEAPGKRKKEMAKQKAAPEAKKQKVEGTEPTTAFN
T1 sequence (P19338 whole entry, the tested form may be a part): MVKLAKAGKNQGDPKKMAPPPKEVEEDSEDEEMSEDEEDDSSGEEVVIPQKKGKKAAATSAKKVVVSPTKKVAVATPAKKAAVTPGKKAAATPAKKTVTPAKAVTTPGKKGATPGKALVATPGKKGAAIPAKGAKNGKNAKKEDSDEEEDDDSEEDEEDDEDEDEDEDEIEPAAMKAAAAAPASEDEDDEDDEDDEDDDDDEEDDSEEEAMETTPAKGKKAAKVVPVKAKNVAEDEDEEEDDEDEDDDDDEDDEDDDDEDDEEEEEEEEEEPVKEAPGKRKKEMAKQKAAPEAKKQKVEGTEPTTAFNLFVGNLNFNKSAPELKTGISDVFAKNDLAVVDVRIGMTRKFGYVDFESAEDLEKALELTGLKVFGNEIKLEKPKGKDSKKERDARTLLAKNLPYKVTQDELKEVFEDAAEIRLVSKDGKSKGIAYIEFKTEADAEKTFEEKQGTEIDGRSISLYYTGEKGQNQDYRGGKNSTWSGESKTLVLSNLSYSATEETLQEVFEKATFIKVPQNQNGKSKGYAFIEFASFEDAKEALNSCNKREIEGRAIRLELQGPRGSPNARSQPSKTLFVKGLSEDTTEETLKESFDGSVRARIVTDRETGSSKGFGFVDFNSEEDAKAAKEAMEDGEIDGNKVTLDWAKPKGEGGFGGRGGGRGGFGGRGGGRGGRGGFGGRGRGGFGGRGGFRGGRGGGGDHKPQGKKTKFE
Sequence of C-terminal part of nucleolin (P19338 312-710 limits assumed): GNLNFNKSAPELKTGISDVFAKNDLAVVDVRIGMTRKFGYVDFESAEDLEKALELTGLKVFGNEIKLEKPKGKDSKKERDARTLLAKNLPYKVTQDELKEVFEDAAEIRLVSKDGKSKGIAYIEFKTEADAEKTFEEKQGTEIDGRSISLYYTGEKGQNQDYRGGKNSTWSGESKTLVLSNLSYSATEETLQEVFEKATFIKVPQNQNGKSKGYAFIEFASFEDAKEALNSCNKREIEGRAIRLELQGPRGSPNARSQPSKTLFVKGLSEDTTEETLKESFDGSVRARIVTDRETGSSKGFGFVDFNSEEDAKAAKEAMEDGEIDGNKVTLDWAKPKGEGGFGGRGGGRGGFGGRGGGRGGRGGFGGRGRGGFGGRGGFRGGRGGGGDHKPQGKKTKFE

## 5[Kψ(CH2N)PR]-TASP [HB-19]
HIV-1 LAI [1]; HeLa P4 cells (refs 1, 4)
  HIV entry at the level of HIV attachment, pretreatment of cells: inhibition of HIV entry
HIV-1 LAI [1]; several hours after removal (ref 1)
  resistance to HIV of pretreated cells after removal of the medium containing the inhibitor: remain resistant
HIV particles
  anchorage of HIV particles: inhibited

## HB-19A: new generation of HB-19 presenting pentavalently the Kψ(CH2N)PR moiety coupled to a modified TASP template (peptide Lys-Pro-Arg; chain KKKKA; also: Kψ(CH2N)P reduced bond, pentavalent on modified TASP template)
full-length nucleolin
  binding to full-length nucleolin: bind
HIV particles
  anchorage of HIV particles: inhibited
[2]
  binding to C-terminal part of nucleolin: bound efficiently
HIV-1 LAI [3]
  HIV entry at the level of HIV attachment, pretreatment of cells: inhibition of HIV entry
CHO K1 cells
  concentration at which binding reaches saturation: 1 µM
RGG domain of nucleolin
  HB-19A concentration at which binding reaches maximum value: 5 µM
CHO 618 cells
  HB-19A binding profile compared with CHO K1: no significant difference
HeLa P4 cells
  concentration at which specific binding reaches saturation: 1 µM
HIV
  inhibition of HIV infection: more than 95%
[4]
  binding to N-terminal part of nucleolin: did not bind at all

## RRWCYRKDKPYRKCR [TW70, anti-HIV cyclic peptide specific for CXCR4, reference compound]
HIV particles
  anchorage of HIV particles: inhibited

## fibroblast growth factor 2: growth factor which binds heparan sulfate proteoglycans
HIV particles
  anchorage of HIV particles: inhibited
